Literature values as cited in patent publication US11723862B2, “Dosage form with sustained release melatonin pellets” (SOCIÉTÉ DES PRODUITS NESTLÉ S.A., priority 2020, dated 2023).

Details: above pH=4.4

aqueous solubility: low
SMILES: COc1ccc2[nH]cc(CCNC(C)=O)c2c1 [melatonin]
